Source: PMC9544090, “BioWF: A Naturally‐Fused, Di‐Domain Biocatalyst from Biotin Biosynthesis Displays an Unexpectedly Broad Substrate Scope” (Chembiochem, 2022)

Assays:
[1] = system: CaBioWF; details: ATP 1 mM, CoASH 1 mM, MgCl2 5 mM, pH 8, 30 °C, 5 h; mutant mass 68567 Da printed, so tag probably kept
[2] = target: T1, CaBioWF (Corynebacterium amycolatum, UniProt E2MUP3); assay: UV-Vis titration, PLP ketoenamine peak at […] nm, hyperbolic fit; format: binding
T1 construct: full-length natural di-domain fusion; synthetic gene in pET-28a, E. coli BL21(DE3); His tag removed by TEV; homodimer by SEC

[3] = system: O=C(O)CCCCCC(=O)O; assay: purified protein; details: BioW domain, CoASH 1 mM, ATP 1 mM, MgCl2 10 mM, pH 8, 30 °C

Chain of CaBioWF (DOC9544090_1 entry or part of it F192Y): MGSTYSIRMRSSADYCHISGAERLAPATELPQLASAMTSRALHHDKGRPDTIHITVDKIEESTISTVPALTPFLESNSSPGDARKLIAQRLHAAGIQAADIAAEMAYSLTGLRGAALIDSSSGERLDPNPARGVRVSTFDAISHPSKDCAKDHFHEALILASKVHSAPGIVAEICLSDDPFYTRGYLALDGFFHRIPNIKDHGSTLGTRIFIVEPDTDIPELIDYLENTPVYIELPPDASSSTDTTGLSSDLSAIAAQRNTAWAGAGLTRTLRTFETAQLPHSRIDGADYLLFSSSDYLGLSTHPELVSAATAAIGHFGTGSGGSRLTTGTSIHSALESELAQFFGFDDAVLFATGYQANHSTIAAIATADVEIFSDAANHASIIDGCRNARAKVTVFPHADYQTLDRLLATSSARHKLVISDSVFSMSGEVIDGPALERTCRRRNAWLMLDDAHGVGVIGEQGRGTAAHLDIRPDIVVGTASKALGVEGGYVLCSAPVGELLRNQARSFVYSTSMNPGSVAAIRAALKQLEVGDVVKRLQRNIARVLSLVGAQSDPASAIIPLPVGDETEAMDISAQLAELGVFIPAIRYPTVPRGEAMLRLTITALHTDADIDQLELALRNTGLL

O=C(O)CCCCCC(=O)O [DC7, pimelic acid]
HPLC of acyl-CoA product, 260 nm [1]: acyl‐CoA product formation was only observed for the natural DC7 pimelic acid substrate

NCC(=O)O [Gly]
Kd [2]: 16.1 ± 1.95 mM

C[C@H](N)C(=O)O [ʟ‐Ala]
Kd [2]: 1.83 ± 0.25 mM

CaBioWF (Corynebacterium amycolatum SK46)
Km [3]: 58.6 ± 3 µM | kcat [3]: 0.21 s⁻¹
